Experimental data as given in paper PMC3476531, “Synergy of Peptide and Sugar in O-GlcNAcase Substrate Recognition” (Chemistry & Biology, 2012).

Key:
hOGA = molecular target: T1, hOGA (Homo sapiens, UniProt O60502); assay: hOGA glycopeptide hydrolysis, substrate competition assay with 4MU-GlcNAc reporter; assay type: biochemical; parameters: GST (N); made in house; host or cells: transiently transfected HEK293 cells; conditions: wild-type full-length hOGA; competition with 4MU-GlcNAc reporter substrate; 37°C, 50 mM citrate-phosphate buffer pH 7.4, 0.1 mg/ml BSA; triplicate; ± error of curve-fit; read-out: Michaelis constant (KM) of glycopeptide substrate for hOGA
T1 sequence (O60502 1-916): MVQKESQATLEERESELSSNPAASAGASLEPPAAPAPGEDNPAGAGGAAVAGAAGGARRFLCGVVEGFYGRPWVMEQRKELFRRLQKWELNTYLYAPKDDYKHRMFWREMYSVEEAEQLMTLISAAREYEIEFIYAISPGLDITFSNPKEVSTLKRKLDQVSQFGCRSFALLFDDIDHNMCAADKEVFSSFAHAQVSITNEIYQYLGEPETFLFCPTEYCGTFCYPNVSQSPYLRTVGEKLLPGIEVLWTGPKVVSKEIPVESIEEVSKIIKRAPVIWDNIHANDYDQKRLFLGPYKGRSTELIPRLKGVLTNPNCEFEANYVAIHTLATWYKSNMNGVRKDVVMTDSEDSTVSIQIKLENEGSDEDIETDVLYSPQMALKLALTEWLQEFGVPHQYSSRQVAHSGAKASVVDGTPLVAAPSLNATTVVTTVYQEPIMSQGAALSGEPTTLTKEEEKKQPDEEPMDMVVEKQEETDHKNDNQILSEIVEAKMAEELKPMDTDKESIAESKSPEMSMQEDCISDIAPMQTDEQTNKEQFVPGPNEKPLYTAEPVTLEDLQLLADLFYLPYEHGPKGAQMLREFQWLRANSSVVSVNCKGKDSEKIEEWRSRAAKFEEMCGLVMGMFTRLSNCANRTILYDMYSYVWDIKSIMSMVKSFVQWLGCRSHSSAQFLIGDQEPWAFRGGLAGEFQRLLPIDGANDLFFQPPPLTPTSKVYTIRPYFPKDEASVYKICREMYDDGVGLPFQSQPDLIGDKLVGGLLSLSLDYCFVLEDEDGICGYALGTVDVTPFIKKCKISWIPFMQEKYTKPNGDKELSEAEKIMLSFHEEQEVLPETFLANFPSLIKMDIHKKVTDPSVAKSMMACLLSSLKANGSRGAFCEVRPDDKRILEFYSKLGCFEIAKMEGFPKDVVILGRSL
Experimental: Protein was expressed in transiently transfected HEK293 cells and purified via glutathione sepharose affinity chromatography.
hOGA and CpOGA glycopeptide hydrolysis assays were carried out as described previously ([Dorfmueller et al., 2006; Schimpl et al., 2010]) using multisubstrate enzyme kinetics with the fluorigenic pseudosubstrate 4MU-GlcNAc as the reporter substrate. […] Reactions were performed at 37°C in 50 mM citrate-phosphate buffer (pH 7.4) and 0.1 mg/ml BSA. Experiments were performed in triplicate, and data were analyzed and plotted with GraphPad PRISM.

[1] = molecular target: T2, human O-GlcNAcase (hOGA), wild-type (human) (UniProt O60502)
T2 sequence: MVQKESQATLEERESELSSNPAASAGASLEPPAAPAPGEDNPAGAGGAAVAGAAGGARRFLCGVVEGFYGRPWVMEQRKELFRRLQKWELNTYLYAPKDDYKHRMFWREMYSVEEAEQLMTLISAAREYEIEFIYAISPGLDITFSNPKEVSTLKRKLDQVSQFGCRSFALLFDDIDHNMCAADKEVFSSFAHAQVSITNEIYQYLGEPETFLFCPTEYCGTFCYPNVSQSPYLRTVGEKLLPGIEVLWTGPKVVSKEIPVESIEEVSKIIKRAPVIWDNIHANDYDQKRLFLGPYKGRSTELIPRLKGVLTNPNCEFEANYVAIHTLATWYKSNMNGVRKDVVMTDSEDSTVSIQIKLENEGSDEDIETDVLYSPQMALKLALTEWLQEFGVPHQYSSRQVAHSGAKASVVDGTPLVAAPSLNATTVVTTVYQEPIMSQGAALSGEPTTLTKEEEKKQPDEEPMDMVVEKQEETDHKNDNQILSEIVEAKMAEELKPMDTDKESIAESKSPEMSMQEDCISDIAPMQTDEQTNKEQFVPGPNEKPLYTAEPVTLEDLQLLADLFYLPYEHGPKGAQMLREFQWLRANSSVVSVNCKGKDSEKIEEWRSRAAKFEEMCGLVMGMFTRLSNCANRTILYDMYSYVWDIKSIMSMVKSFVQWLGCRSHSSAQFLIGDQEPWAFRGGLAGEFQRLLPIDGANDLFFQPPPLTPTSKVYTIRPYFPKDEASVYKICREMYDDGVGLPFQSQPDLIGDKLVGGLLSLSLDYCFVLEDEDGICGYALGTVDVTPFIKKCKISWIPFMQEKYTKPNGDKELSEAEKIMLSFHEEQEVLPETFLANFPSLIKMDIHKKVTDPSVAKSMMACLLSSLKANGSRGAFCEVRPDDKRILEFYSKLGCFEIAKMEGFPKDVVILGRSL

Km (hOGA) | KM (hOGA) of the glycopeptide substrate (substrate competition assay with 4MU-GlcNAc as reporter substrate) [1] | Substance
1800 µM |  | QLVVS(O-GlcNAc)TPPPG [altered p53 glycopeptide with intramolecular hydrogen bond disrupted]
810 ± 140 µM |  | VPHS(O-GlcNAc)SAQ
 | 21 µM | p53 peptide (Ser149) QLVDS(O-GlcNAc)TPPPG, original sequence of Table 2
3700 µM |  | QLVVS(O-GlcNAc)VPPPG [altered p53 glycopeptide with intramolecular hydrogen bond disrupted]
